These are literature values, as cited in US8859624B2, “Stable rasagiline composition” (Chongqing Pharmaceutical Research Institute Co., Ltd., priority 2009, dated 2014).

For this data set the following is noted: taking food after oral administration.

On to `C#CCN[C@@H]1CCc2ccccc21` [Rasagiline, rasagiline], for which the “decrease of blood drug concentration” value is on record as 60%.
